Earlier results as cited in PMC5742115, “Pharmacophore Modeling and in Silico/in Vitro Screening for Human Cytochrome P450 11B1 and Cytochrome P450 11B2 Inhibitors” (Frontiers in Chemistry, 2017).
Read-outs that look alike come from different tables or passages of the source.

Assays:
[1] = target: T1, Human CYP17 (Homo sapiens, UniProt P05093); design: method as in Sergejew and Hartmann, 1994; details: reference inhibitor; ref Sergejew and Hartmann, 1994; cited from earlier work
T1 construct: made in house; host or cells: Escherichia coli (5,000 g sediment of the homogenate)
T1 sequence (P05093 1-508): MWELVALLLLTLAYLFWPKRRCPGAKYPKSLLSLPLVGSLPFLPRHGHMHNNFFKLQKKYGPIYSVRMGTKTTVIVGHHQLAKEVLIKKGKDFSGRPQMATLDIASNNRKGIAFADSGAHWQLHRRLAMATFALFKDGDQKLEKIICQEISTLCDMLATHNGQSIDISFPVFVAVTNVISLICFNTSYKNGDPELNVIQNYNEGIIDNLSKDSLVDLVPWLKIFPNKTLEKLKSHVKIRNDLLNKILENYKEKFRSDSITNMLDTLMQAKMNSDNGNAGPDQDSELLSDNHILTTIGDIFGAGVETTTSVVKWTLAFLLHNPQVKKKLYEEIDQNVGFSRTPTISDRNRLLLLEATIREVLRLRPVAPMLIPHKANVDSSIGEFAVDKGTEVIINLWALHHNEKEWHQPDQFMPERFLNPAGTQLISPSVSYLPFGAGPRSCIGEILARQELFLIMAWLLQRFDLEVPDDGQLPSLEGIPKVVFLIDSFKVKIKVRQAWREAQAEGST

[2] = system: CYP11B1; details: reported activity, supplementary Table 1, 2013, read-out: CYP11B1 IC50, cited from earlier work
[3] = system: CYP11B2; details: reported activity, supplementary Table 1, 2013, read-out: CYP11B2 IC50, cited from earlier work
[4] = ref Pinto-Bazurco Mendieta et al.

SMILES | IC50 [1] [nM] | IC50 ([2]; ref Emmerich et al.) [nM] | IC50 ([3]; ref Emmerich et al.) [nM] | IC50 [2, 4] [nM] | IC50 [3, 4] [nM]
C[C@]12CC[C@H](O)CC1=CC[C@@H]1[C@@H]2CC[C@]2(C)C(c3cccnc3)=CC[C@@H]12 [Abiraterone] | 100 |  |  |  | 
CC(c1ccc(-c2cccc3ccccc23)nc1)n1ccnc1 (centres unmarked) [CHEMBL2417627] |  | 60 | 273 |  | 
c1ccc(-c2ncc(Cn3ccnc3)c3ccccc23)cc1 [CHEMBL2417632] |  | 87 | 302 |  | 
c1ccc(-c2ccc(Cc3cccnc3)cn2)cc1 [CHEMBL2417633] |  | 32 | 322 |  | 
c1ccc(-c2ccc(Cc3ccncc3)cn2)cc1 [CHEMBL2417634] |  | 98 | 621 |  | 
c1ccc(-c2ccc(Cc3cncc4ccccc34)cn2)cc1 [CHEMBL2417635] |  | 6 | 23 |  | 
Cc1ccncc1Cc1ccc(-c2ccccc2)nc1 [CHEMBL2417637] |  | 8 | 19 |  | 
Oc1ccc2ccc(-c3cccnc3)c(Cl)c2c1 [CHEMBL2420674] |  |  |  | 235 | 26
COc1ccc2ccc(-c3cccnc3)c(F)c2c1 [CHEMBL2420675] |  |  |  | 1610 | 17
Oc1ccc2ccc(-c3cccnc3)c(F)c2c1 [CHEMBL2420676] |  |  |  | 1160 | 30
COc1ccc2ccc(-c3cccnc3)c(Cl)c2c1F [CHEMBL2420677] |  |  |  | 2940 | 28
Oc1ccc2ccc(-c3cccnc3)c(Cl)c2c1F [CHEMBL2420678] |  |  |  | 224 | 25
COc1ccc2ccc(-c3cncc(F)c3)c(Cl)c2c1 [CHEMBL2420679] |  |  |  | 1420 | 38
Oc1ccc2ccc(-c3cncc(F)c3)c(Cl)c2c1 [CHEMBL2420680] |  |  |  | 450 | 33
COc1cncc(-c2ccc3ccc(OC)cc3c2Cl)c1 [CHEMBL2420681] |  |  |  | 447 | 24
COc1cncc(-c2ccc3ccc(O)cc3c2Cl)c1 [CHEMBL2420682] |  |  |  | 245 | 15
COc1ccc2ccc(-c3cncc(O)c3)c(Cl)c2c1 [CHEMBL2420683] |  |  |  | 7100 | 13
Oc1cncc(-c2ccc3ccc(O)cc3c2Cl)c1 [CHEMBL2420684] |  |  |  | 2840 | 27
